Experimental data as given in patent publication US4125707A, “Protected pseudotrisaccharide intermediate for paromomycin and neomycin derivatives” (Societa' Farmaceutici Italia S.p.A., priority 1974, dated 1978).
In brackets after ≈: the same amount, converted by molar mass. Read-outs that look alike come from different tables or passages of the source.

Legend:
[1] = tested on: ribosomes from Escherichia coli (7OS); experiment: inhibition of protein synthesis in cell-free system, 70S ribosomes; type: biochemical; conditions: for Activity (ID 50%), dose inhibiting 50% of protein synthesis: cell-free system, 70S ribosomes
Experimental: (§1) Finally, compound 224 was tested as an inhibitor of protein synthesis on cell-free systems containing ribosomes from Escherichia coli (7OS) or from Saccharomyces cerevisiae (8OS).
(§2) (*)Dose inhibiting 50% of growth (.LAMBDA.) or of protein

Entamoeba histolytica = experiment: growth inhibition of Entamoeba histolytica in liquid nutrient medium; type: cell-based
Experimental: (§3) Other tests were carried out on algae and protozoa in order to evaluate the sensitivity of eukaryotic organisms to this new molecule (determination of MIC in liquid nutrient medium).

Euglena gracilis = experiment: growth inhibition of Euglena gracilis in liquid nutrient medium; type: cell-based
Experimental: as §3, §2

[2] = tested on: bacteria sensitive to the aminosidine; experiment: antibacterial activity in vitro and in vivo on bacteria sensitive to aminosidine
Experimental: (§4) The "in vitro" tests were carried out with the method of serial dilutions in liquid medium (Nutrient Broth Difco). The minimal inhibitory concentration (MIC) was determined after 24 h incubation at 37° C.
(§5) The therapeutic activity was assessed in mice experimentally infected with Staphylococcus aureus and treated (4 h after infection) with a single dose of the compound by the subcutaneous route.

E.coli K12 = experiment: MIC, serial dilutions in liquid medium, E. coli K12; type: cell-based; conditions: Escherichia coli, 24 h, 37° C, Nutrient Broth Difco
Experimental: as §4

Proteus sp.4 = experiment: MIC, serial dilutions in liquid medium, Proteus sp.4; type: cell-based; conditions: 24 h, 37° C, Nutrient Broth Difco
Experimental: as §4
(§6) The resistance to the aminosidine is due, in the case of E. coli 526, to the production of an aminoglycoside inactivating enzyme (NKT I); the other strains are clinical isolates whose mechanism of resistance is not know.

[3] = tested on: ribosomes from Saccharomyces cerevisiae (8OS); experiment: inhibition of protein synthesis in cell-free system, 80S ribosomes; type: biochemical
Experimental: as §1, §2

Ochromonas malhamensis = experiment: growth inhibition of Ochromonas malhamensis in liquid nutrient medium; type: cell-based
Experimental: as §3, §2

Proteus sp.3 = experiment: MIC, serial dilutions in liquid medium, Proteus sp.3; type: cell-based; conditions: 24 h, 37° C, Nutrient Broth Difco
Experimental: as §4, §6

Proteus sp.1 = experiment: MIC, serial dilutions in liquid medium, Proteus sp.1; type: cell-based; conditions: 24 h, 37° C, Nutrient Broth Difco
Experimental: as §4, §6

Staphylococcus aureus = experiment: therapeutic activity in mice experimentally infected with Staphylococcus aureus; type: in vivo; conditions: sc
Experimental: as §5

Klebsiella pneumoniae = experiment: MIC, serial dilutions in liquid medium, Klebsiella pneumoniae; type: cell-based; conditions: 24 h
Experimental: as §4

Escherichia coli B = experiment: MIC, serial dilutions in liquid medium, Escherichia coli B; type: cell-based; conditions: 24 h, 37° C, Nutrient Broth Difco
Experimental: as §4

Tetrahymena geleei = experiment: growth inhibition of Tetrahymena geleei in liquid nutrient medium; type: cell-based
Experimental: as §3, §2

acute toxicity in mice = conditions: mouse, in vivo, sc, subcutaneous route
Experimental: There were also carried out comparative trials for determining the actue toxicity and ototoxicity. The LD50 values in mice by the subcutaneous route are: Aminosidine, 700 mg/kg; Compound 224, 1000 mg/kg.

Staphilococcus aureus = experiment: MIC, serial dilutions in liquid medium, Staphylococcus aureus; type: cell-based; conditions: 24 h
Experimental: as §4

Proteus sp.5 = experiment: MIC, serial dilutions in liquid medium, Proteus sp.5; type: cell-based; conditions: 24 h
Experimental: as §4, §6

algae and protozoa = experiment: growth of algae and protozoa; type: cell-based; conditions: eukaryotic microorganisms, Table 2
Experimental: as §3

E.coli 526 = experiment: MIC, serial dilutions in liquid medium, E. coli 526 (resistant, NKT I); type: cell-based, Escherichia coli
Experimental: as §4, §6

[4] = tested on: resistant strains (E. coli, Proteus sp.); experiment: antibacterial activity on resistant strains; type: cell-based; conditions: for growth of resistant strains (in words): E. coli, Proteus sp., at concentrations at which 224 prevents growth
Experimental: as §4, §6

Proteus sp.2 = experiment: MIC, serial dilutions in liquid medium, Proteus sp.2; type: cell-based; conditions: 24 h
Experimental: as §4, §6

[5] = 37° C, Nutrient Broth Difco, read-out: MIC

SMILES | Activity (ID 50%), dose inhibiting 50% of protein synthesis [1] | Activity (ID 50%), dose inhibiting 50% of growth (Entamoeba histolytica) | Activity (ID 50%), dose inhibiting 50% of growth (Euglena gracilis) | MIC (E.coli K12) | MIC (Proteus sp.4) | Activity (ID 50%), dose inhibiting 50% of protein synthesis [3] | Activity (ID 50%), dose inhibiting 50% of growth (Ochromonas malhamensis) | MIC (Proteus sp.3) | MIC (Proteus sp.1) | MIC (Escherichia coli B) | Activity (ID 50%), dose inhibiting 50% of growth (Tetrahymena geleei) | LD50 (acute toxicity in mice) | effect on growth of algae and protozoa (in words) (algae and protozoa) | growth of resistant strains (in words) [4] | other results
NC[C@@H]1O[C@H](O[C@H]2[C@@H](O)[C@H](O[C@@H]3[C@@H](O)[C@H](N)C[C@H](N)[C@H]3O[C@H]3O[C@H](CN)[C@@H](O)[C@H](O)[C@H]3O)O[C@@H]2CO)[C@H](N)[C@@H](O)[C@@H]1O [compound 224] | 40 | > 20 | > 100 | 125 µg/mL (≈ 203 µM) | 125 µg/mL (≈ 203 µM) | > 500 | > 100 | 125 µg/mL (≈ 203 µM) | 125 µg/mL (≈ 203 µM) | 12.5 µg/mL (≈ 20.3 µM) | > 100 | 1000 mg/kg | does not affect the growth of algae and protozoa | prevents the growth of resistant strains | selective inhibition of protein synthesis (in words) ([1]; 7OS in comparison with 8OS ribosomes): selective inhibition of protein synthesis; antibacterial activity in vitro and in vivo (in words) ([2]; bacteria sensitive to the aminosidine): remarkable antibacterial activity in vitro and in vivo; antibacterial activity compared with aminosidine, sensitive strains (in words) ([2]; sensitive strains): of the same order of magnitude of that of aminosidine; ED50 (Staphylococcus aureus; mice, single subcutaneous dose 4 h after infection, read-out: DT50 (the source's name)): 50 mg/kg; MIC (Klebsiella pneumoniae; [5]): 2 µg/mL (≈ 3.25 µM); MIC (Staphilococcus aureus; [5]): 6.2 µg/mL (≈ 10.1 µM); MIC (Proteus sp.5; [5]): 250 µg/mL (≈ 406 µM); MIC (E.coli 526; Escherichia coli, 526, 24 h, 37° C, Nutrient Broth Difco, resistant strain, read-out: MIC): 100 µg/mL (≈ 162 µM); antibacterial activity compared with aminosidine, resistant strains (in words) ([4]; resistant strains): clearly superior on resistant strains; MIC (Proteus sp.2; [5]): 250 µg/mL (≈ 406 µM)
NC[C@@H]1O[C@H](O[C@H]2[C@@H](O)[C@H](O[C@@H]3[C@@H](O)[C@H](N)C[C@H](N)[C@H]3O[C@H]3O[C@H](CO)[C@@H](O)[C@H](O)[C@H]3N)O[C@@H]2CO)[C@H](N)[C@@H](O)[C@@H]1O [Aminosidine, reference compound] | 30 | 1 | 12.5 | 500 µg/mL (≈ 812 µM) | > 500 µg/mL | 65 | 1.56 | > 500 µg/mL | 500 µg/mL (≈ 812 µM) | 6.2 µg/mL (≈ 10.1 µM) | 12.5 | 700 mg/kg | strong inhibitor of the organisms tested | completely inactive | ED50 (Staphylococcus aureus; 4 h, read-out: DT50): 25 mg/kg; MIC (Klebsiella pneumoniae): 1 µg/mL (≈ 1.62 µM); MIC (Staphilococcus aureus): 3.1 µg/mL (≈ 5.04 µM); MIC (Proteus sp.5): > 500 µg/mL; MIC (E.coli 526; Escherichia coli, 526, 24 h): > 500 µg/mL; MIC (Proteus sp.2): > 500 µg/mL
